This is an account of results in paper PMC5933782, “Molecular structures of cdc2-like kinases in complex with a new inhibitor chemotype” (PLoS ONE, 2018).

Experiment in all cases: radiometric protein kinase assay
Assay [1] deals with DYRK1B (Homo sapiens, UniProt Q9Y463). Type of assay: biochemical. Particulars: 15 μmol/L ATP; read-out: IC50 DYRK 1B.
For assay [2], the target named is CLK2 (Mus musculus, UniProt O35491).
Description: (§1) Buffers. Buffer A: 10 mM MgCl2, 1 mM EGTA, 1 mM DTT, 25 mM Tris-HCl pH 7.5, 50 μg heparin/mL. Buffer C: 60 mM β-glycerophosphate, 15 mM p-nitrophenylphosphate, 25 mM MOPS (pH 7.2), 15 mM EGTA, 15 mM MgCl2, 1 mM DTT, 1 mM sodium vanadate, 1 mM phenylphosphate.
(§2) Kinase activities were assayed in buffer A or C at 30°C at a final ATP concentration of 15 μmol/L. Blank values were subtracted and activities were expressed in percent of the maximal activity, i.e. in the absence of inhibitors. Controls were performed with appropriate dilutions of DMSO.
(§3) Their kinase activity was assayed in buffer A, with 1 mg histone H1/mL, in the presence of 15 μmol/L [γ-33P] ATP (3,000 Ci/mmol; 10 mCi/mL) in a final volume of 30 μL. After 30 min incubation at 30°C, the reaction was stopped by harvesting onto P81 phosphocellulose supernatant (Whatman) using a FilterMate harvester (Packard) and washing in 1% phosphoric acid. Scintillation fluid was added and the radioactivity measured in a Packard counter.
(§4) All data points for construction of dose response curves were recorded in triplicate.
Assay [3] has as its target GSK-3. The assay is classed as biochemical, porcine. Particulars: 15 μmol/L ATP; read-out: IC50 GSK3.
Assay [4] deals with CDK9/cyclin T (Homo sapiens, UniProt P50750).
Assay [5] concerns the target T1, DYRK2 (Homo sapiens, UniProt Q92630).
T1 sequence (Q92630 1-601): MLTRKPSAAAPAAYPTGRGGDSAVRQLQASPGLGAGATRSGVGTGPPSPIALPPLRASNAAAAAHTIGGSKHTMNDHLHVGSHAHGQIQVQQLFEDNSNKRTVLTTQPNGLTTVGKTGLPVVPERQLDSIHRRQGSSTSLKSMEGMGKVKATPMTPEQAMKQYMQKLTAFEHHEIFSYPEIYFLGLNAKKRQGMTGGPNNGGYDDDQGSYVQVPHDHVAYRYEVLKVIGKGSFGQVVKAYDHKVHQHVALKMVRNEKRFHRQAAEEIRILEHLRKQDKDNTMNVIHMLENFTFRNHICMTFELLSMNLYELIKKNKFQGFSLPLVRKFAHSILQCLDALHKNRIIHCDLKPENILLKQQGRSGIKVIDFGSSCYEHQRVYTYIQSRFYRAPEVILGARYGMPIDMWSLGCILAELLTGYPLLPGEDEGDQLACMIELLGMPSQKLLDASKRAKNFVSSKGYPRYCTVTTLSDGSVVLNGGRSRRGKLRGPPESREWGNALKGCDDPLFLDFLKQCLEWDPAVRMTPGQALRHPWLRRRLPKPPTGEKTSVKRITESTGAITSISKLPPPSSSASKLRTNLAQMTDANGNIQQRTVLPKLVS
The assay is classed as biochemical. To be noted: 15 μmol/L ATP; read-out: IC50 DYRK 2.

The target in assay [6] is CDK1/cyclin B. Type of assay: biochemical, starfish. Particulars: 15 μmol/L ATP.
Assay [7] deals with CLK1 (Mus musculus, UniProt P22518).
The target of assay [8] is CLK3 (Mus musculus, UniProt O35492).
Description: as §1, §2, §3, §4
Assay [9] has as its target CK1δ/ε. Type of assay: biochemical, porcine. Particulars: 15 μmol/L ATP; read-out: IC50 CK1.
In assay [10] the target is T2, DYRK3 (Homo sapiens, UniProt O43781).
T2 sequence (O43781 1-588): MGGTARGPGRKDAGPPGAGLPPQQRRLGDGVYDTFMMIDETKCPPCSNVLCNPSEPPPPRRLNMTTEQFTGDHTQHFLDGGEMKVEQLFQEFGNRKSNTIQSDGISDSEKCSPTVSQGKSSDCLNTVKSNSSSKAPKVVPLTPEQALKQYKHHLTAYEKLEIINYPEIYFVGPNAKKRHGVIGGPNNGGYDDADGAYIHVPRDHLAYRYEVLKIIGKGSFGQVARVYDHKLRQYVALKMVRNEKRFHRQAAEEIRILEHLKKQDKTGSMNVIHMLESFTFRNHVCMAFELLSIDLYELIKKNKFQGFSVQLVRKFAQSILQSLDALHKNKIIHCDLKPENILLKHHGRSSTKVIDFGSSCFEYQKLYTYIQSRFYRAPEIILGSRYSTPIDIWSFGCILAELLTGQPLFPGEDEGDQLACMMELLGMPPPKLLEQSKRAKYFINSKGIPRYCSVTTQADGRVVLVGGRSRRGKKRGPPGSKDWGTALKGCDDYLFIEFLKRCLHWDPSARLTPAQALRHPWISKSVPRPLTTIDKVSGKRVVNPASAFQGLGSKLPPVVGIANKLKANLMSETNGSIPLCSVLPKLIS
The assay is classed as biochemical. Particulars: 15 μmol/L ATP; read-out: IC50 DYRK 3.

The target of assay [11] is CLK4 (Mus musculus, UniProt O35493).
Description: as §1, §2, §3, §4
Assay [12] addresses T3, CDK2/cyclin A (Homo sapiens, UniProt P24941).
T3 construct: made in house
Type of assay: biochemical. Particulars: 15 μmol/L ATP; read-out: IC50 CDK2/cyclinA.

Assay [13] has as its target T4, CDK5/p25 (Homo sapiens, UniProt Q00535).
T4 construct: made in house
The assay is classed as biochemical. Particulars: 15 μmol/L ATP.

The target in assay [14] is DYRK1A (Homo sapiens, UniProt Q13627). Type of assay: biochemical. To be noted: 15 μmol/L ATP; read-out: IC50 DYRK 1A.

Some results are limits rather than exact numbers.

Sequence of CLK2 (O35491 whole entry): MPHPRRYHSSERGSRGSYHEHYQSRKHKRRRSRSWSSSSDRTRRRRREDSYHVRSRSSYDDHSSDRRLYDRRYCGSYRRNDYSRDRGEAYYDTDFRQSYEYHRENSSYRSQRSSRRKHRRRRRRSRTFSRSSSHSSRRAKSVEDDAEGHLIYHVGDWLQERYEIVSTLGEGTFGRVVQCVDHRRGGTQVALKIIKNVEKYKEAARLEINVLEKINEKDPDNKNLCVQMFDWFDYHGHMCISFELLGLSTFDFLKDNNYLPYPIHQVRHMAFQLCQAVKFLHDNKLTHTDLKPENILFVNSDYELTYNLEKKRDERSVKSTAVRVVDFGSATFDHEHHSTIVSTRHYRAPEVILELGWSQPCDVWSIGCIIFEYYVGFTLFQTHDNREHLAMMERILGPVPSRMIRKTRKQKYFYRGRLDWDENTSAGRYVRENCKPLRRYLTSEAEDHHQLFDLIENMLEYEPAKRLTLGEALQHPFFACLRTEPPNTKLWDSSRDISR
Sequence of DYRK1B (Q9Y463 whole entry): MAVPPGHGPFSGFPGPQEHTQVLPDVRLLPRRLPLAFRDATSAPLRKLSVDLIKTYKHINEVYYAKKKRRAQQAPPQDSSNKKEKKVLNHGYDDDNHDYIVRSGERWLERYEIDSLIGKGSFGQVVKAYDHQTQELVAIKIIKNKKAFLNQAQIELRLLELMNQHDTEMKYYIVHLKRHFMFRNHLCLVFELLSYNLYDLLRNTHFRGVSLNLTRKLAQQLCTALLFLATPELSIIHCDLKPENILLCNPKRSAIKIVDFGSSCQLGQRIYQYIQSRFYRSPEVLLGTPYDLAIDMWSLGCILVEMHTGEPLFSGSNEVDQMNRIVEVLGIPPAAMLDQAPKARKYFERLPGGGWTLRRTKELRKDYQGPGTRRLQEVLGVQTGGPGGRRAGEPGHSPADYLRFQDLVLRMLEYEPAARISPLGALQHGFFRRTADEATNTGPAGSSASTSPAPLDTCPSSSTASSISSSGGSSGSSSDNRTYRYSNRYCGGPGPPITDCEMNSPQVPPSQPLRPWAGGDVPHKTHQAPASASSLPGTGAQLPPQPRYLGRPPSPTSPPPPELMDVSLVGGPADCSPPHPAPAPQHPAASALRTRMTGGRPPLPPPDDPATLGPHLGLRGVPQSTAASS
Sequence of CLK4 (O35493 whole entry): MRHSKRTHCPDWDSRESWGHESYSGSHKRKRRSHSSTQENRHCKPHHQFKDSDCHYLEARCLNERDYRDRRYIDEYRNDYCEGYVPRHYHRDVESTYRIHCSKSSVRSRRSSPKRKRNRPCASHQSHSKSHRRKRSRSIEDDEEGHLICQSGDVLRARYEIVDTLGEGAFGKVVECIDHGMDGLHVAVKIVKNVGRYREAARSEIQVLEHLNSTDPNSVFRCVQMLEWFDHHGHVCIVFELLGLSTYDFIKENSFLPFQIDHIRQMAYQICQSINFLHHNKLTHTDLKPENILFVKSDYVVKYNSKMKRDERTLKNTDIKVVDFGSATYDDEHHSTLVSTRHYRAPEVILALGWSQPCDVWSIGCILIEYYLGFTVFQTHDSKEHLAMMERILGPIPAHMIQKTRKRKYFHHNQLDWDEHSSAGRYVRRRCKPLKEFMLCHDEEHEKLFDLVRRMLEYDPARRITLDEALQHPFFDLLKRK
Sequence of CLK3 (O35492 whole entry): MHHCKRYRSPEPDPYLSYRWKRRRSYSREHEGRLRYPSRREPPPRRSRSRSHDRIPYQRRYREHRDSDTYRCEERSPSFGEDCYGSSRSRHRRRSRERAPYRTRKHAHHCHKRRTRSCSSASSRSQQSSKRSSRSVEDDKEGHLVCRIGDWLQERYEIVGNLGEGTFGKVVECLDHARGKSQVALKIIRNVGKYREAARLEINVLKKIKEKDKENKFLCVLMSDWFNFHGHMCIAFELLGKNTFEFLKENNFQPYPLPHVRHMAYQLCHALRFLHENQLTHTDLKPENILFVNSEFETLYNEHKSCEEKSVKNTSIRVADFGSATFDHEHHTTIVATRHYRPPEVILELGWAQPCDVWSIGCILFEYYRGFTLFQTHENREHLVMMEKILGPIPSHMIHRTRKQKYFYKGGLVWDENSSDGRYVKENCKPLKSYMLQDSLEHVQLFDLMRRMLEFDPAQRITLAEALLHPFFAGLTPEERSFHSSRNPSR
Sequence of CLK1 (P22518 whole entry): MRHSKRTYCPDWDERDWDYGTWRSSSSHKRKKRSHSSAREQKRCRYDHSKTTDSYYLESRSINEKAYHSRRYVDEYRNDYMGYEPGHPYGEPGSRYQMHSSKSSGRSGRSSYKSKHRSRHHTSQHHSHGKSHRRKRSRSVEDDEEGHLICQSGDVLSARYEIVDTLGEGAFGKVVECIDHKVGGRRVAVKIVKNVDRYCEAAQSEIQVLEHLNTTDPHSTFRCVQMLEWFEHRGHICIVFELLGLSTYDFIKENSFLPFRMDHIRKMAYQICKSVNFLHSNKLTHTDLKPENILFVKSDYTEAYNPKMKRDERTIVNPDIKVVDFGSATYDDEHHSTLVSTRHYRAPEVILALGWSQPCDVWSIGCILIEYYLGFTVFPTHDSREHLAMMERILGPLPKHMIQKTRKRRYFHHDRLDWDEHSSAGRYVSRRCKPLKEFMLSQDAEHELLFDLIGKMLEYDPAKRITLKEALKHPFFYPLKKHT
Sequence of CDK9/cyclin T (P50750 whole entry): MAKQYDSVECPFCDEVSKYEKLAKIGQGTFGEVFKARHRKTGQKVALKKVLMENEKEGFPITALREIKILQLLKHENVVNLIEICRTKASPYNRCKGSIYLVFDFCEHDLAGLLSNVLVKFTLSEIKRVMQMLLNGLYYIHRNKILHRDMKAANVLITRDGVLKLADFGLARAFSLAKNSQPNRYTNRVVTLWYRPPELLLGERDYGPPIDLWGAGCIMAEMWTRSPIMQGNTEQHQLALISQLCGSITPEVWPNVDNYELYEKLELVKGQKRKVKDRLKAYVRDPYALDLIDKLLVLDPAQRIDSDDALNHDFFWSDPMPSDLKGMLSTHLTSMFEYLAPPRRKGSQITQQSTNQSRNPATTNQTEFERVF
Sequence of CDK9/cyclin T (O60563 whole entry partner): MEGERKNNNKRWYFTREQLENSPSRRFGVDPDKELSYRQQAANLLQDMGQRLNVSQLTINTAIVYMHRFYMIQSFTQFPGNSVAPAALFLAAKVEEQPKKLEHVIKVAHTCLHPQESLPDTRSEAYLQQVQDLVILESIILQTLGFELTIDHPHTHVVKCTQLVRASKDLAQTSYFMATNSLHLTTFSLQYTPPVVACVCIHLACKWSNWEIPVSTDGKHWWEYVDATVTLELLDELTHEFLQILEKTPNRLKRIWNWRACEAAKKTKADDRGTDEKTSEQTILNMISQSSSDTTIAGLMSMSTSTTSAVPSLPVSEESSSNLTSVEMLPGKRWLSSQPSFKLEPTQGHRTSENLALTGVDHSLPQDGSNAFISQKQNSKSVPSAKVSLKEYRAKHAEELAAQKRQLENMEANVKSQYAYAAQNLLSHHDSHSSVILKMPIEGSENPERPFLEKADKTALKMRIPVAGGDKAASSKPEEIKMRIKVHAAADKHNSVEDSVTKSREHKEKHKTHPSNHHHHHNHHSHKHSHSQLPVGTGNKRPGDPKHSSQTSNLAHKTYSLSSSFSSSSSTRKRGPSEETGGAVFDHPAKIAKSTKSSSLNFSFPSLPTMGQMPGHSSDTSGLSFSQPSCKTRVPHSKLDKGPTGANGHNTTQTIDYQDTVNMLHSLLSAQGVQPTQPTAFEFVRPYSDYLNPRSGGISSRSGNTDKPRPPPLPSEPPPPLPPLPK
T4 sequence (Q00535 whole entry): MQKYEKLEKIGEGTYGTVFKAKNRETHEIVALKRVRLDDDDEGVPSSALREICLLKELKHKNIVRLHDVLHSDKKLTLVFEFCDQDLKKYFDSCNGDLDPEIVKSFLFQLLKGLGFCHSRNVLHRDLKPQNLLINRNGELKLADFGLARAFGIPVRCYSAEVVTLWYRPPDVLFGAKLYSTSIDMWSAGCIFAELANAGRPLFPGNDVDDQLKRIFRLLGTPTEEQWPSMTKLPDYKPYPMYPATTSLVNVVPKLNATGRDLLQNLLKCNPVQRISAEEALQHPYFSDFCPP
T4 sequence (Q15078 99-307 partner limits assumed): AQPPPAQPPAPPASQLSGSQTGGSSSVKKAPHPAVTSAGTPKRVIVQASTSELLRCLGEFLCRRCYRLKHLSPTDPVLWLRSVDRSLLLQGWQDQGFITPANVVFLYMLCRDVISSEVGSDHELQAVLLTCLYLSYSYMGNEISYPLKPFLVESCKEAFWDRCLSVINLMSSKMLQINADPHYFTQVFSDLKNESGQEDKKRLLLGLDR

Consider `Cc1cccc(-c2c[nH]c3c4c(ccc23)CNC4=O)c1` [8i, 3-(3-Methylphenyl)-6,7-dihydropyrrolo[3,4-g]indol-8(1H)-one], for which the IC50 in assay [1] was 4.1 µM; in assay [2], 0.41 µM; in [3], over 10 µM; in [4], over 10 µM; in [5], 3.1 µM; in assay [6] it was over 10 µM. The IC50 in assay [7] was 0.061 µM; in assay [8] it was 5.1 µM; in assay [9], over 10 µM; in [10] it was over 10 µM; in [11] it was 0.14 µM; in assay [12], over 10 µM. For the same compound, the IC50 in assay [13] is over 10 µM; in assay [14], 2.6 µM.

Turning to `Cc1[nH]c2c3c(c(Br)cc2c1-c1ccccc1)CNC3=O` [12b, 5-Bromo-2-methyl-3-phenyl-6,7-dihydropyrrolo[3,4-g]indol-8(1H)-one], the IC50 in [1] was 0.11 µM; in assay [2] it was 0.025 µM; in [3] it was over 10 µM; in assay [4], over 10 µM; in [5], 0.11 µM; in assay [6] it was over 10 µM. Also, the IC50 in assay [7] is 0.023 µM; in assay [8], 7.1 µM; in assay [9], over 10 µM; in [10], 0.12 µM; in [11], under 0.03 µM; in assay [12] it was over 10 µM. Also, the IC50 was over 10 µM in assay [13] and 0.11 µM in [14].

With `CN1Cc2ccc3c(-c4ccccc4)c[nH]c3c2C1=O` [12d, 7-Methyl-3-phenyl-6,7-dihydropyrrolo[3,4-g]indol-8(1H)-one], the IC50 in [1], in [2], in assay [3], in assay [4], in [5] and in [6] was over 10 µM in each case. Moreover, the IC50 in assay [7], in assay [8], in [9], in assay [10], in assay [11] and in assay [12] was over 10 µM throughout. In addition, the IC50 in [13] and in assay [14] was over 10 µM in each case.

`NC(=O)Cn1cc(-c2ccccc2)c2ccc3c(c21)C(=O)NC3` [15c, 2-(8-Oxo-3-phenyl-7,8-dihydropyrrolo[3,4-g]indol-1(6H)-yl)acetamide]: the IC50 in assay [1], in assay [2], in assay [3], in assay [4], in assay [5] and in assay [6] was over 10 µM throughout. The IC50 in assay [7], in [8], in assay [9], in assay [10], in [11] and in assay [12] was over 10 µM each time. Besides, the IC50 in [13] and in assay [14] was over 10 µM throughout.

Turning to `CN1Cc2ccc3c(-c4ccccc4)cn(C)c3c2C1=O` [15e, 1,7-Dimethyl-3-phenyl-6,7-dihydropyrrolo[3,4-g]indol-8(1H)-one], the IC50 in [1], in assay [2], in assay [3], in assay [4], in [5] and in assay [6] was over 10 µM each time. The IC50 in assay [7], in [8], in assay [9], in assay [10], in assay [11] and in [12] was over 10 µM in each case. The IC50 in assay [13] and in [14] was over 10 µM each time.
